Experimental data published in US10080756B2, “Combination methods for treating cancers” (Gilead Sciences, Inc., priority 2014, dated 2018).
Read-outs that look alike come from different tables or passages of the source.

Key:
DHL-10 = assay: Cell Titer Glo viability assay, DHL-10, alone or with compound of Formula I (Example 3)
Protocol: All procedures were performed at Gilead Sciences, Inc. in Branford, Conn. […] Compound plates were diluted 1:100 in RPMI without serum or additives but containing either 1% DMSO or 3 μM of the compound of Formula I creating a 10× stock. The DLBCL cell line, DHL-10 was plated at 10,000 cells per well in RPMI supplemented with 10% FBS and 100 U/L penicillin-streptomycin. To each well containing cells, 11 μl of 10× compound mixture in serum-free media was added in a final concentration of 0.2% DMSO and cells were incubated at 37° C. in 5% CO2 for 72 hours. Cell viability was assessed using Cell Titer Glo (CTG, Promega, Madison, Wis.) following the manufacturer's protocol on an Envision plate reader (Perkin Elmer, Waltham, Mass.). CTG signals were recorded for individual compound treatments and combinations. EC50 values were determined using a four parameter variable slope model with GraphPad Prism 6.0 software.

[1] = cited from earlier work

## CC[C@]1(O)C[C@H]2CN(CCc3c([nH]c4ccccc34)[C@@](C(=O)OC)(c3cc4c(cc3OC)N(C=O)[C@H]3[C@@](O)(C(=O)OC)[C@H](OC(C)=O)[C@]5(CC)C=CCN6CC[C@]43[C@@H]65)C2)C1 [Vincristine, vincristine]
DHL-10; Homo sapiens, 72 h, read-out: Inhibition of cell viability EC50, No Compound of Formula I
  EC50: 14.1 nM
DHL-10; read-out: Inhibition of cell viability EC50, +300 nM Compound of Formula I, DHL-10, in combination with 300 nM compound of Formula I, 72 hours
  EC50: 3.5 nM
[1]; 95% ethanol
  solubility: only slightly soluble
[1]; methanol
  solubility: soluble
[1]; water
  solubility: freely soluble
